pIC50, pKd: −log10 of the molar value.
Columns and labels:
KMT9 [1] = molecular target: T1, KMT9 (Homo sapiens, UniProt Q9Y5N5); test: KMT9 methyltransferase inhibition assay, 3H-SAM scintillation (entries 1-154); format: biochemical; conditions: entries 1-154: 3H-SAM assay, 25 nM KMT9, 5 μM ETF1
T1 sequence (Q9Y5N5 1-214): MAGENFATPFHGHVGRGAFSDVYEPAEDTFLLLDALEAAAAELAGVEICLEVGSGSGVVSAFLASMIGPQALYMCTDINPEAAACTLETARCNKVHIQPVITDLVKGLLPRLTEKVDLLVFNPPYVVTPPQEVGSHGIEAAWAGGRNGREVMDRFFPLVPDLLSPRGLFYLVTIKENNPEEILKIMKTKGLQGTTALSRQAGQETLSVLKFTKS
T1 sequence (Q9UI30 1-120 isoform Q9UI30-2 partner): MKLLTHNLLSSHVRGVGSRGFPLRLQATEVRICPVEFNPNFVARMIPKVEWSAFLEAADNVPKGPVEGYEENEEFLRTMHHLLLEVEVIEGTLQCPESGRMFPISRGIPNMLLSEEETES
In short: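 Final 25 nM KMT9, 5 μM ETF1 (residues 140-275), 0.3 μM 3H-SAM plus 0.7 μM SAM in pH 8.5 BTP buffer, 2 h at 30° C. TCA-quenched, filter-washed, methylation counted by scintillation; % inhibition vs DMSO and no-enzyme controls, IC50 from four-parameter fit.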

KMT9 [2] = molecular target: T1, KMT9; test: Microscale thermophoresis (MST) KMT9 binding; conditions: microscale thermophoresis, His-tag labelled KMT9 (20 nM); read-out: MST
In short: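 His-tagged KMT9 (20 nM), RED-Tris-NTA labelled, titrated with varying compound concentrations in 25 mM HEPES pH 7.5, 100 mM NaCl, 1 mM DTT, 0.05% Tween. MST at 40% MST and 100% LED power, Nano-RED excitation; Kd binned A ≤10 nM, B 10–100, C 100–1000, D >1000 nM.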

KMT9 [3] = molecular target: T1, KMT9; test: KMT9 thermal shift assay (SyproOrange); format: binding; conditions: ΔTm; 500 µM compound, 2 μM KMT9, 5X SO; read-out: Thermal shift
In short: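 Recombinant KMT9 was incubated with compound and SyproOrange at 25° C in 50 mM BTP pH 8.5, 1 mM MgCl2, 1 mM DTT. It was then heated from 20° C to 95° C at 1° C per 15 s with fluorescence read each step. Tm came from a Boltzmann sigmoidal fit; ΔTm relative to DMSO control, binned in 5 K ranges.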

Row | SMILES | pIC50 (KMT9 [1]) | pKd (KMT9 [2]) | ΔTm at 500 µM (KMT9 [3]) [°C]
1 | Nc1ncnc2c1c(-c1ccn[nH]1)cn2[C@@H]1C[C@H](CNCCCNCCc2ccccc2)[C@@H](O)[C@H]1O [472 (346), (1R,2S,3R,5R)-3-(4-Amino-5-(1H-pyrazol-5-yl)-7H-pyrrolo[2,3-d]pyrimidin-7-yl)-5-(((3-(phenethylamino)propyl)amino)methyl) cyclopentane-1,2-diol] | 6.00 to 7.00 | 7.00 to 8.00 | 15 to 20
2 | Nc1ncnc2c1c(-c1ncc[nH]1)cn2[C@@H]1C[C@H](CNCCCNCCc2ccccc2)[C@@H](O)[C@H]1O [473 (347), (1R,2S,3R,5R)-3-(4-Amino-5-(1H-imidazol-2-yl)-7H-pyrrolo[2,3-d]pyrimidin-7-yl)-5-(((3-(phenethylamino)propyl)amino)methyl) cyclopentane-1,2-diol] | 6.00 to 7.00 | 7.00 to 8.00 | 15 to 20
3 | Nc1ncnc2c1c(-c1nccs1)cn2[C@@H]1C[C@H](CNCCCNCCc2ccccc2)[C@@H](O)[C@H]1O [474 (348), (1R,2S,3R,5R)-3-(4-Amino-5-(thiazol-2-yl)-7H-pyrrolo[2,3-d]pyrimidin-7-yl)-5-(((3-(phenethylamino)propyl)amino)methyl) cyclopentane-1,2-diol] | 5.00 to 6.00 | 7.00 to 8.00 | 15 to 20
4 | Nc1ncnc2c1c(-c1ncn[nH]1)cn2[C@@H]1C[C@H](CNCCCNCCc2ccccc2)[C@@H](O)[C@H]1O [475 (349), (1R,2S,3R,5R)-3-(4-amino-5-(1H-1,2,4-triazol-5-yl)-7H-pyrrolo[2,3-d]pyrimidin-7-yl)-5-(((3-(phenethylamino)propyl)amino)methyl) cyclopentane-1,2-diol] | 6.00 to 7.00 | 7.00 to 8.00 | 15 to 20
5 | Cn1ccc(-c2cn([C@@H]3C[C@H](CNCCCNCCc4ccccc4)[C@@H](O)[C@H]3O)c3ncnc(N)c23)n1 [476 (350), (1R,2S,3R,5R)-3-(4-Amino-5-(1-methyl-1H-pyrazol-3-yl)-7H-pyrrolo[2,3-d]pyrimidin-7-yl)-5-(((3-(phenethylamino)propyl)amino)methyl) cyclopentane-1,2-diol] | 6.00 to 7.00 | 6.00 to 7.00 | 15 to 20
6 | Nc1ncnc2c1c(-c1ccn(Cc3ccccc3)n1)cn2[C@@H]1C[C@H](CNCCCNCCc2ccccc2)[C@@H](O)[C@H]1O [477 (351), (1R,2S,3R,5R)-3-(4-Amino-5-(1-benzyl-1H-pyrazol-3-yl)-7H-pyrrolo[2,3-d]pyrimidin-7-yl)-5-(((3-(phenethylamino)propyl)amino)methyl) cyclopentane-1,2-diol] | 5.00 to 6.00 | 7.00 to 8.00 | 15 to 20
7 | Cn1cc(-c2cn([C@@H]3C[C@H](CNCCCNCCc4ccccc4)[C@@H](O)[C@H]3O)c3ncnc(N)c23)cn1 [478 (352), (1R,2S,3R,5R)-3-(4-Amino-5-(1-methyl-1H-pyrazol-4-yl)-7H-pyrrolo[2,3-d]pyrimidin-7-yl)-5-(((3-(phenethylamino)propyl)amino)methyl) cyclopentane-1,2-diol] | 5.00 to 6.00 | 7.00 to 8.00 | 15 to 20
8 | Nc1ncnc2c1c(C1CCOCC1)cn2[C@@H]1C[C@H](CNCCCNCCc2ccccc2)[C@@H](O)[C@H]1O [479 (353), (1R,2S,3R,5R)-3-(4-Amino-5-(tetrahydro-2H-pyran-4-yl)-7H-pyrrolo[2,3-d]pyrimidin-7-yl)-5-(((3-(phenethylamino)propyl)amino)methyl) cyclopentane-1,2-diol] | 5.00 to 6.00 | 6.00 to 7.00 | 10 to 15
9 | CN1CCC(c2cn([C@@H]3C[C@H](CNCCCNCCc4ccccc4)[C@@H](O)[C@H]3O)c3ncnc(N)c23)CC1 [480 (354), (1R,2S,3R,5R)-3-(4-Amino-5-(1-methylpiperidin-4-yl)-7H-pyrrolo[2,3-d]pyrimidin-7-yl)-5-(((3-(phenethylamino)propyl)amino)methyl) cyclopentane-1,2-diol] | 5.00 to 6.00 | < 6.00 | ≤ 10
10 | CC(=O)N1CCC(c2cn([C@@H]3C[C@H](CNCCCNCCc4ccccc4)[C@@H](O)[C@H]3O)c3ncnc(N)c23)CC1 [481 (355), 1-(4-(4-Amino-7-((1R,2S,3R,4R)-2,3-dihydroxy-4-(((3-(phenethylamino)propyl)amino)methyl)cyclopentyl)-7H-pyrrolo[2,3-d]pyrimidin-5-yl)piperidin-1-yl)ethan-1-one] | 5.00 to 6.00 | 6.00 to 7.00 | 10 to 15
11 | CN1CC=C(c2cn([C@@H]3C[C@H](CNCCCNCCc4ccccc4)[C@@H](O)[C@H]3O)c3ncnc(N)c23)CC1 [482 (356), (1R,2S,3R,5R)-3-(4-amino-5-(1-methyl-1,2,3,6-tetrahydropyridin-4-yl)-7H-pyrrolo[2,3-d]pyrimidin-7-yl)-5-(((3-(phenethylamino)propyl)amino)methyl) cyclopentane-1,2-diol] | 5.00 to 6.00 | < 6.00 | 10 to 15
12 | N#Cc1cn([C@@H]2C[C@H](CNCCCNCCc3ccccc3)[C@@H](O)[C@H]2O)c2ncnc(N)c12 [483 (357), 4-Amino-7-((1R,2S,3R,4R)-2,3-dihydroxy-4-(((3-(phenethylamino)propyl)amino)methyl)cyclopentyl)-7H-pyrrolo[2,3-d]pyrimidine-5-carbonitrile] | 5.00 to 6.00 | 6.00 to 7.00 | 10 to 15
13 | Nc1ncnc2c1c(Br)cn2[C@@H]1C[C@H](CN2CC(CNCCc3ccccc3)C2)[C@@H](O)[C@H]1O [484 (358), (1R,2S,3R,5R)-3-(4-Amino-5-bromo-7H-pyrrolo[2,3-d]pyrimidin-7-yl)-5-((3-((phenethylamino)methyl)azetidin-1-yl)methyl) cyclopentane-1,2-diol] | 6.00 to 7.00 | 7.00 to 8.00 | 15 to 20
14 | C=Cc1cn([C@@H]2C[C@H](CN3CC(CNCCc4ccc(F)cc4)C3)[C@@H](O)[C@H]2O)c2ncnc(N)c12 [485 (359), (1R,2S,3R,5R)-3-(4-Amino-5-vinyl-7H-pyrrolo[2,3-d]pyrimidin-7-yl)-5-((3-(((4-fluorophenethyl)amino)methyl)azetidin-1-yl)methyl) cyclopentane-1,2-diol] | 5.00 to 6.00 | 7.00 to 8.00 | 15 to 20
15 | Nc1ncnc2c1c(-c1nccs1)cn2[C@@H]1C[C@H](C2CCNCC2)[C@@H](O)[C@H]1O [487 (360)] | 5.00 to 6.00 | 7.00 to 8.00 | 15 to 20
16 | Nc1ncnc2c1ncn2[C@@H]1O[C@H](C(=O)NCCCNC(=O)Nc2ccccc2)[C@@H](O)[C@H]1O [684 (202), (2S,3S,4R,5R)-5-(6-amino-9H-purin-9-yl)-3,4-dihydroxy-N-(3-(3-phenylureido)propyl) tetrahydrofuran-2-carboxamide] | < 5.00 | < 6.00 | ≤ 10
17 | CNc1ncnc2c1ccn2[C@@H]1C[C@H](COCC(=O)NCCc2ccccc2)[C@@H](O)[C@H]1O [689 (298), 2-(((1R,2R,3S,4R)-2,3-Dihydroxy-4-(4-(methylamino)-7H-pyrrolo[2,3-d]pyrimidin-7-yl)cyclopentyl)methoxy)-N-phenethylacetamide] | < 5.00 | < 6.00 | ≤ 10
18 | Nc1ncnc2c1c(-c1nccs1)cn2[C@@H]1C[C@H](CC2CNC2)[C@@H](O)[C@H]1O [Compound 486, (1R,2S,3R,5S)-3-(4-amino-5-(thiazol-2-yl)-7H-pyrrolo[2,3-d]pyrimidin-7-yl)-5-(azetidin-3-ylmethyl) cyclopentane-1,2-diol] | < 5.00 | < 6.00 | ≤ 10
19 | Nc1ncnc2c1c(-c1nc(Cc3ccccc3)cs1)cn2[C@@H]1C[C@H](C2CCNCC2)[C@@H](O)[C@H]1O [Compound 488, (1R,2S,3R,5R)-3-(4-amino-5-(4-benzylthiazol-2-yl)-7H-pyrrolo[2,3-d]pyrimidin-7-yl)-5-(piperidin-4-yl)cyclopentane-1,2-diol] | 5.00 to 6.00 | 7.00 to 8.00 | 10 to 15
20 | Nc1ncnc2c1c(-c1ccn(Cc3ccccc3)n1)cn2[C@@H]1C[C@H](C2CCNCC2)[C@@H](O)[C@H]1O [Compound 489, (1R,2S,3R,5R)-3-(4-amino-5-(1-benzyl-1H-pyrazol-3-yl)-7H-pyrrolo[2,3-d]pyrimidin-7-yl)-5-(piperidin-4-yl)cyclopentane-1,2-diol] | 5.00 to 6.00 | 7.00 to 8.00 | 15 to 20
21 | O[C@@H]1[C@H](O)[C@@H](C2CCNCC2)C[C@H]1n1cc2c3c(ncnc31)NCCC2 [Compound 490, (1S,2R,3R,5R)-3-(piperidin-4-yl)-5-(6,7,8,9-tetrahydro-2H-2,3,5,6-tetraazabenzo[cd]azulen-2-yl)cyclopentane-1,2-diol] | 5.00 to 6.00 | 6.00 to 7.00 | 10 to 15

Reference: patent US20250188110A1, “SPECIFIC SMALL MOLECULE INHIBITORS THAT BLOCK KMT9 METHYLTRANSFERASE ACTIVITY AND FUNCTION” (ALBERT-LUDWIGS-UNIVERSITÄT FREIBURG, priority 2021, published 2025)
